Where two headings read alike, the source gives them in different places.
System: SARS-CoV-2 M^pro variants (all mutants and the WT)
Format: biochemical

SMILES: CC(C)(C)[C@H](NC(=O)C(F)(F)F)C(=O)N1C[C@H]2[C@@H]([C@H]1C(=O)N[C@H](C#N)C[C@@H]1CCNC1=O)C2(C)C [nirmatrelvir]
- inhibition (0.005 µM): below 50%
- inhibition (0.02 µM): over 50%
- inhibition of enzymatic activity (0.1 µM): fully inhibited

Source: publication PMC8856729 (Bioorganic & Medicinal Chemistry Letters, 2022)
